Assay: Viscosity at 20° C. by U-tube time of fall technique
Type: physicochemical
Details: 350 mgl/ml solution, 10 mM Tris, EDTA 0.1 mg/ml
Description: The obtained iodine concentration was 356 mgl/ml. The viscosity was determined to 28.7 mPas at 20° C. The osmolality was determined to 295 mOsm/kg.
a) Preparation of a 350 mgl/ml solution of IIIa containing 10 mM Tris and EDTA (0.1 mg/ml)
(§1) To a calibrated flask with a volume of 99.655 ml was added 71.174 g IIIa (water content 2.03%), 153 mg Trizma preset crystals (pH 7.3) and 10 mg EDTA disodium dihydrate followed by 67.330 g Milli-Q water. The mixture was brought to clear solution by intermittent agitation, gentle heating and sonication.
The clear solution with pH=6.95 was filtered through a Millipore Sterivex 0.22 um filter.
b) Preparation of a 350 mgl/ml solution of iopamidol containing 10 mM Tris and EDTA (0.1 mg/ml)
as §1, with “72.429” for “71.174”, “iopamidol” for “IIIa”, “1.7%), 157” for “2.03%), 153”, “66.309” for “67.330”
The clear solution with pH=6.85 was filtered through a Millipore Sterivex 0.22 um filter.
c) The two solutions from a) and b) were mixed in different proportions according to Table 1. After thorough mixing, the viscosity was determined at 20° C. using conventional U-tube time of fall technique.

SMILES	Viscosity at 20° C. (100% IIIa / 0% iopamidol by volume) [mPas]	Viscosity at 20° C. (0% IIIa / 100% iopamidol by volume) [mPas]
O=CN(CC(O)CN(C=O)c1c(I)c(C(=O)NCC(O)CO)c(I)c(C(=O)NCC(O)CO)c1I)c1c(I)c(C(=O)NCC(O)CO)c(I)c(C(=O)NCC(O)CO)c1I (centres unmarked) [IIIa, 5,5′-(2-hydroxypropane-1,3-diyl)bis(formylazanediyl)bis(N^1,N^3-bis(2,3-dihydroxypropyl)-2,4,6-triiodoisophthalamide)]	42.9	
C[C@H](O)C(=O)Nc1c(I)c(C(=O)NC(CO)CO)c(I)c(C(=O)NC(CO)CO)c1I [iopamidol]		15.8

Source: patent publication US20110256068A1, “CONTRAST MEDIA COMPOSITIONS” (priority 2009, published 2011)
